Patent US12077534B2, “Aza-heterobicyclic inhibitors of MAT2A and methods of use for treating cancer” (Les Laboratoires Servier SAS, priority 2018, dated 2024)

Key:
HCT116 MTAP+/+ = assay: Inhibition of cellular proliferation (Cell Titer Glo), HCT116 MTAP+/+; format: cell-based; details: Homo sapiens, HCT-116, 96 h, 4 days, read-out: 4 Day Relative Growth Inhibition (MTAP +/+)
How it was run: (§1)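 Isogenic HCT116 MTAP+/+ and MTAP−/− cells treated 24 h after plating with 10-point 3-fold dilutions, then grown 4 days at 37 °C/5% CO2. ATP content read by Cell Titer Glo luminescence, blank-subtracted and normalized to 0.2% DMSO control, plotted as percent proliferation change versus log molar concentration.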

HCT116 MTAP−/− = assay: Inhibition of cellular proliferation (Cell Titer Glo), HCT116 MTAP-/-; format: cell-based; details: Homo sapiens, HCT-116, 96 h, 4 days, read-out: 4 Day Relative Growth Inhibition (MTAP −/−)
How it was run: as §1

[1] = test system: MAT2A activity (SAM) in HCT116 cells with deleted MTAP gene; assay: Cellular assay of target engagement (SAM) by LC-MS/MS; format: cell-based; details: Homo sapiens, HCT-116; HCT116 MTAP −/−, 72 hrs; read-out: Cell 72 h SAM Inhibition (MTAP −/−)
How it was run: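 HCT116 MTAP-deleted cells treated with 10-point 3-fold DMSO serial dilutions of compound for 72 hrs at 37° C. Cells lysed in cold 80% methanol/acetic acid extraction buffer with d3-SAM internal standard; SAM quantified by LC-MS/MS (MRM m/z 399.2→250.1).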

MAT2A homodimer = biological target: T1, MAT2A homodimer (Homo sapiens, UniProt P31153); assay: MAT2A biochemical assay (phosphate release, PiColorLock Gold); details: recombinant MAT2A homodimer, 60 min pre-incubation, 25° C.; read-out: Enzyme Inhibition
T1 construct: inferred from Ni sepharose purification and imidazole elution; made in house; host or cells: SF9 insect cells, recombinant baculovirus (Bac to Bac, pFASTBAC1)
T1 sequence (P31153 whole entry): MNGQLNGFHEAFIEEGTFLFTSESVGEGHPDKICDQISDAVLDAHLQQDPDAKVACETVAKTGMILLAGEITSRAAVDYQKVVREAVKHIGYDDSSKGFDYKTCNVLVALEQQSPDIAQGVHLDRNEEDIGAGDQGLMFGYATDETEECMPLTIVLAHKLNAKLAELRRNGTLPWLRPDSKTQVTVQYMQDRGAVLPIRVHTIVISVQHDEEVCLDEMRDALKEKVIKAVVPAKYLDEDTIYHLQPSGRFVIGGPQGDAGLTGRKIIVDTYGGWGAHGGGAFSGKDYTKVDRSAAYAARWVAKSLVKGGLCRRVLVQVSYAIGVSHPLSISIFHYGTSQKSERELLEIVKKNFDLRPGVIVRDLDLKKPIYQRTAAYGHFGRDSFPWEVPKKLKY
How it was run: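 Baculovirus/Sf9-expressed, Ni-purified MAT2A homodimer (4 µg/mL in pH 8.0 Tris/KCl/MgCl2 buffer) preincubated 60 min at 25 °C with compound (2% DMSO final). Substrate mix of 500 µM ATP and 400 µM L-methionine added; 60 min at 25 °C; released phosphate quantified colorimetrically against a phosphate standard curve.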

| SMILES | IC50 (HCT116 MTAP+/+) | IC50 (HCT116 MTAP−/−) | IC50 [1] | IC50 (MAT2A homodimer) |
| --- | --- | --- | --- | --- |
| [2H]C([2H])([2H])Oc1ccc(-c2c(=O)n(-c3ccc4nn(C)cc4c3)nc3ccc(OCCF)nc23)cc1 [Example 157] | ≥ 1000 nM | 100 to 1000 nM | 100 to 1000 nM | < 100 nM |
| CCSc1ccc2nn(-c3ccc4nn(C)cc4c3)c(=O)c(-c3ccc(OC(F)F)cc3)c2n1 [Example 158] | ≥ 1000 nM | < 100 nM | < 100 nM | < 100 nM |
| CCNc1ccc2nn(-c3ccc4nn(C)cc4c3)c(=O)c(-c3ccc(OC(F)F)cc3)c2n1 [Example 159] | ≥ 1000 nM | < 100 nM | < 100 nM | < 100 nM |
| Cn1cc2cc(-n3nc4ccc(NCC(F)(F)F)nc4c(-c4ccc(OC(F)F)cc4)c3=O)ccc2n1 [Example 160] | ≥ 1000 nM | < 100 nM | < 100 nM | < 100 nM |
| [2H]C([2H])([2H])C([2H])([2H])Oc1ccc2nn(-c3ccc4nn(C)cc4c3)c(=O)c(-c3ccc(OC(F)F)cc3)c2n1 [Example 161] | ≥ 1000 nM | < 100 nM | < 100 nM | < 100 nM |
| Cn1cc2cc(-n3nc4ccc(NC5CC5)nc4c(-c4ccc(OC(F)F)cc4)c3=O)ccc2n1 [Example 162] | ≥ 1000 nM | < 100 nM | < 100 nM | < 100 nM |
| Cn1cc2cc(-n3nc4ccc(N5CCCC5)nc4c(-c4ccc(OC(F)F)cc4)c3=O)ccc2n1 [Example 163] | ≥ 1000 nM | ≥ 1000 nM | > 1000 nM | < 100 nM |
| Cn1cc2cc(-n3nc4ccc(SCC(F)(F)F)nc4c(-c4ccc(OC(F)F)cc4)c3=O)ccc2n1 [Example 165] | 100 to 1000 nM | < 100 nM | < 100 nM | < 100 nM |
| Cc1c2cc(-n3nc4ccc(OCC(F)F)nc4c(-c4ccc(OC(F)F)cc4)c3=O)ccc2nn1C [Example 166, 6-(2,2-difluoroethoxy)-4-(4-(difluoromethoxy)phenyl)-2-(2,3-dimethyl-2H-indazol-5-yl)pyrido[3,2-c]pyridazin-3(2H)-one] | ≥ 1000 nM | < 100 nM | < 100 nM | < 100 nM |
| Cn1cnc2ccc(-n3nc4ccc(OCC(F)F)nc4c(-c4ccc(OC(F)F)cc4)c3=O)cc21 [Example 167, 6-(2,2-difluoroethoxy)-4-(4-(difluoromethoxy)phenyl)-2-(1-methyl-1H-benzo[d]imidazol-6-yl)pyrido[3,2-c]pyridazin-3(2H)-one] | ≥ 1000 nM | < 100 nM | < 100 nM | < 100 nM |
| CCOc1ccc2nn(-c3ccc4ncccc4c3)c(=O)c(-c3ccc(Cl)cc3)c2n1 [Example 168] | ≥ 1000 nM | 100 to 1000 nM | < 100 nM | < 100 nM |
| O=c1c(-c2ccc(OC(F)F)cc2)c2nc(OCC(F)F)ccc2nn1-c1ccc2ncsc2c1 [Example 169] | < 100 nM | < 100 nM | < 100 nM | < 100 nM |
| O=c1c(-c2ccc(OC(F)F)cc2)c2nc(OCC(F)F)ccc2nn1-c1ccc2nccn2c1 [Example 170] | ≥ 1000 nM | 100 to 1000 nM | < 100 nM | < 100 nM |
| COc1c2cc(-n3nc4ccc(OCC(F)F)nc4c(-c4ccc(OC(F)F)cc4)c3=O)ccc2nn1C [Example 171] | ≥ 1000 nM | < 100 nM | < 100 nM | < 100 nM |
| COc1nc2ccc(-n3nc4ccc(OCC(F)F)nc4c(-c4ccc(OC(F)F)cc4)c3=O)cc2n1C [Example 172] | ≥ 1000 nM | < 100 nM | < 100 nM | < 100 nM |
| Cc1c2cc(-n3nc4ccc(OCC(F)F)nc4c(-c4ccc(Cl)cc4)c3=O)ccc2nn1C [Example 173] | 100 to 1000 nM | < 100 nM | < 100 nM | < 100 nM |

| SMILES | IC50 (HCT116 MTAP+/+) | IC50 (HCT116 MTAP−/−) | IC50 [1] | IC50 (MAT2A homodimer) |
| --- | --- | --- | --- | --- |
| COc1c2cc(-n3nc4ccc(OCC(F)F)nc4c(-c4ccc(Cl)cc4)c3=O)ccc2nn1C [Example 174] | ≥ 1000 nM | < 100 nM | < 100 nM | < 100 nM |
| [2H]C([2H])([2H])Oc1c2cc(-n3nc4ccc(OCC(F)F)nc4c(-c4ccc(OC(F)F)cc4)c3=O)ccc2nn1C [Example 175] | 100 to 1000 nM | < 100 nM | < 100 nM | < 100 nM |
| O=c1c(-c2ccc(OC(F)F)cc2)c2nc(OCC(F)F)ccc2nn1-c1ccc2nnccc2c1 [Example 176] | 100 to 1000 nM | 100 to 1000 nM | < 100 nM | < 100 nM |
| O=c1c(-c2ccc(OC(F)F)cc2)c2nc(OCC(F)F)ccc2nn1-c1ccc2c(c1)OCCO2 [Example 177] | 100 to 1000 nM | < 100 nM | < 100 nM | < 100 nM |
| O=c1c(-c2ccc(OC(F)F)cc2)c2nc(OCC(F)F)ccc2nn1-c1ccc2c(c1)CCO2 [Example 178] | 100 to 1000 nM | < 100 nM | < 100 nM | < 100 nM |
| O=c1c(-c2ccc(OC(F)F)cc2)c2nc(OCC(F)F)ccc2nn1-c1ccc2ncncc2c1 [Example 179] | ≥ 1000 nM | 100 to 1000 nM | < 100 nM | < 100 nM |
| CN1CCOc2ccc(-n3nc4ccc(OCC(F)F)nc4c(-c4ccc(OC(F)F)cc4)c3=O)cc21 [Example 180] | ≥ 1000 nM | < 100 nM | < 100 nM | < 100 nM |
| Cn1nc2ccc(-n3nc4ccc(OCC(F)F)nc4c(-c4ccc(OC(F)F)cc4)c3=O)cc2n1 [Example 182] | 100 to 1000 nM | < 100 nM | < 100 nM | < 100 nM |
| O=c1c(-c2ccc(OC(F)F)cc2)c2nc(OCC(F)F)ccc2nn1-c1ccc2ncccc2c1 [Example 183] | 100 to 1000 nM | < 100 nM | < 100 nM | < 100 nM |
| O=c1c(-c2ccc(OC(F)F)cc2)c2nc(OCC(F)F)ccc2nn1-c1ccc2nncn2c1 [Example 184] | ≥ 1000 nM | 100 to 1000 nM | < 100 nM | < 100 nM |
| COC1CC=C(n2nc3ccc(OCC(F)F)nc3c(-c3ccc(OC(F)F)cc3)c2=O)CC1 (centres unmarked) [Example 187] | ≥ 1000 nM | ≥ 1000 nM | 100 to 1000 nM | < 100 nM |
| O=c1c(-c2ccc(OC(F)F)cc2)c2nc(OCC(F)F)ccc2nn1-c1ccncc1 [Example 188] | ≥ 1000 nM | 100 to 1000 nM | 100 to 1000 nM | < 100 nM |
| CNC(=O)c1ccc(-n2nc3ccc(OCC(F)F)nc3c(-c3ccc(OC(F)F)cc3)c2=O)cc1 [Example 189] | ≥ 1000 nM | 100 to 1000 nM | 100 to 1000 nM | < 100 nM |
| O=c1c(-c2ccc(OC(F)F)cc2)c2nc(OCC(F)F)ccc2nn1-c1ccc(F)cc1 [Example 191] | ≥ 1000 nM | ≥ 1000 nM | 100 to 1000 nM | 100 to 1000 nM |
| O=c1c(-c2ccc(OC(F)F)cc2)c2nc(OCC(F)F)ccc2nn1-c1ccc2nccnc2c1 [Example 192] | 100 to 1000 nM | 100 to 1000 nM | < 100 nM | < 100 nM |
| O=c1c(-c2ccc(OC(F)F)cc2)c2nc(OCC(F)F)ccc2nn1-c1cn[nH]c1 [Example 193] | ≥ 1000 nM | 100 to 1000 nM | 100 to 1000 nM | < 100 nM |
